Measurements: US7504096B1, “Methods for in vitro fertilization” (The United States of America as represented by the …, priority 1999, dated 2009)

System: ovariectomized mice
Experiment: Blastocyst implantation after embryo transfer in ovariectomized, steroid-primed mice (LIF as replacement for nidatory estrogen)
Format: in vivo
Details: for Nos. Implanted / Nos. Pregnant: E2 1 injection of 40 ng or LIF 3 injections of 5 μg 1 hour apart, analysis four days later
Procedure: Mice were ovariectomized and allowed to recover for 18 days before starting experimental manipulation. Priming of the uterus by steroid hormones was started by the injection of 100 ng of Estrogen on each of 3 consecutive days. On the 6th day the mice were given a single injection of Progesterone in the form of Depo-Provera. Three days later an average of 6 blastocysts, either directly isolated from females or from cultures started the previous day when the embryos were at the 8-cell stage were surgically transferred to the right uterine horn. After the mice had recovered from surgery they were either given 1 injection of 40 ng of estrogen or 3 injections, 1 hour apart, of 5 μg LIF. Four days later (equivalent to Day 7-8 of pregnancy) the mice were sacrificed for analysis, and the implantation sites recovered.

[1] = Blastocyst type at time of transfer: D4 cultured, E2 36 blastocysts (6 recipients), LIF 42 (7)
[2] = Blastocyst type at time of transfer: D4 direct, 36 blastocysts in 6 recipients

LIF: cytokine Leukemia Inhibitory Factor, recombinant, member of the IL-6 family of cytokines
Nos. Implanted [1]: 16
Nos. Pregnant [1]: 5
Nos. Implanted [2]: 30
Nos. Pregnant [2]: 6
Inducing embryo implantation in place of estrogen (result in words) (injection of LIF versus injection of estrogen, Table 1 protocol): can unequivocally replace the injection of estrogen for inducing embryo implantation
